Results: US8273754B2, “Substituted 1H-pyrazolo[3,4-D]pyrimidine-6-amine compounds” (ArQule, Inc., priority 2008, dated 2012)
Read-outs that look alike come from different tables or passages of the source.

Test system: cancer cells
Test: MTS cell growth inhibition assay (72 hours)
Assay type: cell-based
In short: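 Cells in DMEM with 1% FBS, seeded 18 h, then compound-treated 72 h at 37 °C. Viability by MTS/PMS for 4 h, formazan absorbance at 492 nm; IC50 taken as concentration giving 50% absorbance drop, activity banded by percent inhibition.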

[1] = Homo sapiens, DLD-1, 72 h, DLD-1 cells, read-out: DLD-1 MTS 72 hr at 10 μM
[2] = Homo sapiens, KATO III, 72 h, KATO III cells, read-out: KATO III MTS 72 hr at 10 μM
[3] = Homo sapiens, MDA-MB-231, 72 h, MDA-MB-231 cells, read-out: MDA-MB-231 MTS 72 hr at 10 μM
[4] = Homo sapiens, NCI-H1299, 72 h, NCI-H1299 cells, read-out: NCI-H1299 MTS 72 hr at 10 μM
[5] = PaCa-2, 72 h, PACA-2 cells, read-out: PACA-2 MTS 72 hr at 10 μM

SMILES | inhibition at 10 µM [1] [%] | inhibition at 10 µM [2] [%] | inhibition at 10 µM [3] [%] | inhibition at 10 µM [4] [%] | inhibition at 10 µM [5] [%]
COc1cc(C)c(S(=O)(=O)N2CC(Nc3nc(N)nc4[nH]ncc34)Cc3ccccc32)c(C)c1C (stereo not drawn) [Compound 72, N4-(1-(4-methoxy-2,3,6-trimethylphenylsulfonyl)-1,2,3,4-tetrahydroquinolin-3-yl)-1H-pyrazolo[3,4-d]pyrimidine-4,6-diamine] | > 79 | > 79 | 50 to 79 | < 50 | > 79
Nc1nc(NC2Cc3ccccc3N(S(=O)(=O)c3ccc(NC(=O)Nc4ccccc4)cc3)C2)c2cn[nH]c2n1 (stereo not drawn) [Compound 225, 1-(4-(3-(6-amino-1H-pyrazolo[3,4-d]pyrimidin-4-ylamino)-3,4-dihydroquinolin-1(2H)-ylsulfonyl)phenyl)-3-phenylurea] | > 79 | > 79 | > 79 | > 79 | > 79
COc1ccc(CC(=O)N2CC(Nc3nc(N)nc4[nH]ncc34)Cc3ccccc32)cc1OC (stereo not drawn) [Compound 95, 1-(3-(6-amino-1H-pyrazolo[3,4-d]pyrimidin-4-ylamino)-3,4-dihydroquinolin-1(2H)-yl)-2-(3,4-dimethoxyphenyl)ethanone] | < 50 | < 50 | < 50 | < 50 | < 50
CCCCCCc1ccc(C(=O)N2CC(Nc3nc(N)nc4[nH]ncc34)Cc3ccccc32)cc1 (stereo not drawn) [Compound 88, (3-(6-amino-1H-pyrazolo[3,4-d]pyrimidin-4-ylamino)-3,4-dihydroquinolin-1(2H)-yl)(4-hexylphenyl)methanone] | 50 to 79 | < 50 | < 50 | < 50 | < 50
Nc1nc(NC2CCN(S(=O)(=O)c3cc(Cl)cc(Cl)c3)c3ccccc3C2)c2cn[nH]c2n1 (stereo not drawn) [Compound 174, N4-{1-[(3,5-dichlorophenyl)sulfonyl]-2,3,4,5-tetrahydro-1H-1-benzazepin-4-yl}-1H-pyrazolo[3,4-d]pyrimidine-4,6-diamine] | 50 to 79 | 50 to 79 | < 50 | < 50 | 50 to 79
Nc1nc(NC2Cc3ccccc3N(S(=O)(=O)c3ccc(F)cc3)C2)c2cn[nH]c2n1 (stereo not drawn) [Compound 20, N4-(1-(4-fluorophenylsulfonyl)-1,2,3,4-tetrahydroquinolin-3-yl)-1H-pyrazolo[3,4-d]pyrimidine-4,6-diamine] | < 50 | < 50 | < 50 | < 50 | < 50
Nc1nc(NC2Cc3ccccc3N(S(=O)(=O)c3cccc(NC(=O)Nc4cc(C(F)(F)F)ccc4F)c3)C2)c2cn[nH]c2n1 (stereo not drawn) [Compound 220, 1-[3-({3-[(6-amino-1H-pyrazolo[3,4-d]pyrimidin-4-yl)amino]-3,4-dihydroquinolin-1(2H)-yl}sulfonyl)phenyl]-3-[2-fluoro-5-(trifluoromethyl)phenyl]urea] | > 79 | > 79 | > 79 | > 79 | > 79
COc1cc(CN2CC(Nc3nc(N)nc4[nH]ncc34)Cc3ccccc32)ccc1F (stereo not drawn) [Compound 146, N4-[1-(4-fluoro-3-methoxybenzyl)-1,2,3,4-tetrahydroquinolin-3-yl]-1H-pyrazolo[3,4-d]pyrimidine-4,6-diamine] | > 79 | > 79 | > 79 | 50 to 79 | > 79
COc1ccc(CN2CC(Nc3nc(N)nc4[nH]ncc34)Cc3ccccc32)cc1OC1CCCC1 (stereo not drawn) [Compound 162, N4-{1-[3-(cyclopentyloxy)-4-methoxybenzyl]-1,2,3,4-tetrahydroquinolin-3-yl}-1H-pyrazolo[3,4-d]pyrimidine-4,6-diamine] | < 50 | < 50 | < 50 | < 50 | < 50
Nc1nc(NC2Cc3ccccc3N(S(=O)(=O)c3cccc(NC(=O)Nc4ccccc4)c3)C2)c2cn[nH]c2n1 (stereo not drawn) [Compound 200, 1-[3-({3-[(6-amino-1H-pyrazolo[3,4-d]pyrimidin-4-yl)amino]-3,4-dihydroquinolin-1(2H)-yl}sulfonyl)phenyl]-3-phenylurea] | < 50 | < 50 | < 50 | < 50 | < 50
Cc1ccccc1NC(=O)Nc1cccc(S(=O)(=O)N2CC(Nc3nc(N)nc4[nH]ncc34)Cc3ccccc32)c1 (stereo not drawn) [Compound 213, 1-[3-({3-[(6-amino-1H-pyrazolo[3,4-d]pyrimidin-4-yl)amino]-3,4-dihydroquinolin-1(2H)-yl}sulfonyl)phenyl]-3-(2-methylphenyl)urea] | < 50 | > 79 | < 50 | < 50 | 50 to 79
Cc1ccc(CNC(=O)N2CC(Nc3nc(N)nc4[nH]ncc34)Cc3ccccc32)cc1 (stereo not drawn) [Compound 110, 3-(6-amino-1H-pyrazolo[3,4-d]pyrimidin-4-ylamino)-N-(4-methylbenzyl)-3,4-dihydroquinoline-1(2H)-carboxamide] | < 50 | < 50 | < 50 | < 50 | < 50
Nc1nc(NC2Cc3ccccc3N(S(=O)(=O)c3cccc(NC(=O)Nc4ccc5c(c4)Cc4ccccc4-5)c3)C2)c2cn[nH]c2n1 (stereo not drawn) [Compound 202, 1-[3-({3-[(6-amino-1H-pyrazolo[3,4-d]pyrimidin-4-yl)amino]-3,4-dihydroquinolin-1(2H)-yl}sulfonyl)phenyl]-3-(9H-fluoren-2-yl)urea] | > 79 | > 79 | > 79 | 50 to 79 | > 79
CCc1ccccc1NC(=O)N1CC(Nc2nc(N)nc3[nH]ncc23)Cc2ccccc21 (stereo not drawn) [Compound 107, 3-(6-amino-1H-pyrazolo[3,4-d]pyrimidin-4-ylamino)-N-(2-ethylphenyl)-3,4-dihydroquinoline-1(2H)-carboxamide] | < 50 | < 50 | < 50 | < 50 | < 50
Cc1cccc(NC(=O)Nc2cccc(S(=O)(=O)N3CC(Nc4nc(N)nc5[nH]ncc45)Cc4ccccc43)c2)c1 (stereo not drawn) [Compound 205, 1-[3-({3-[(6-amino-1H-pyrazolo[3,4-d]pyrimidin-4-yl)amino]-3,4-dihydroquinolin-1(2H)-yl}sulfonyl)phenyl]-3-(3-methylphenyl)urea] | 50 to 79 | > 79 | 50 to 79 | < 50 | > 79
Nc1nc(NC2Cc3ccccc3N(C(=O)C3CCC3)C2)c2cn[nH]c2n1 (stereo not drawn) [Compound 103, (3-(6-amino-1H-pyrazolo[3,4-d]pyrimidin-4-ylamino)-3,4-dihydroquinolin-1(2H)-yl)(cyclobutyl)methanone] | > 79 | > 79 | > 79 | > 79 | > 79
Nc1nc(NC2Cc3ccccc3N(Cc3cc(Cl)ccc3C(F)(F)F)C2)c2cn[nH]c2n1 (stereo not drawn) [Compound 163, N4-{1-[5-chloro-2-(trifluoromethyl)benzyl]-1,2,3,4-tetrahydroquinolin-3-yl}-1H-pyrazolo[3,4-d]pyrimidine-4,6-diamine] | > 79 | > 79 | > 79 | > 79 | > 79
Nc1nc(NC2Cc3ccccc3N(C(=O)Cc3cccc4ccccc34)C2)c2cn[nH]c2n1 (stereo not drawn) [Compound 98, 1-(3-(6-amino-1H-pyrazolo[3,4-d]pyrimidin-4-ylamino)-3,4-dihydroquinolin-1(2H)-yl)-2-(naphthalen-1-yl)ethanone] | < 50 | < 50 | < 50 | < 50 | < 50
COC(=O)c1ccccc1NC(=O)N1CC(Nc2nc(N)nc3[nH]ncc23)Cc2ccccc21 (stereo not drawn) [Compound 119, methyl 2-(3-(6-amino-1H-pyrazolo[3,4-d]pyrimidin-4-ylamino)-1,2,3,4-tetrahydroquinoline-1-carboxamido)benzoate] | > 79 | > 79 | > 79 | > 79 | > 79
Nc1nc(NC2Cc3ccccc3N(S(=O)(=O)c3cccc(NC(=O)Nc4cccc(Cl)c4Cl)c3)C2)c2cn[nH]c2n1 (stereo not drawn) [Compound 211, 1-[3-({3-[(6-amino-1H-pyrazolo[3,4-d]pyrimidin-4-yl)amino]-3,4-dihydroquinolin-1(2H)-yl}sulfonyl)phenyl]-3-(2,3-dichlorophenyl)urea] | > 79 | > 79 | > 79 | > 79 | > 79
CCOC(=O)c1ccc(NC(=O)N2CC(Nc3nc(N)nc4[nH]ncc34)Cc3ccccc32)cc1 (stereo not drawn) [Compound 114, ethyl 4-(3-(6-amino-1H-pyrazolo[3,4-d]pyrimidin-4-ylamino)-1,2,3,4-tetrahydroquinoline-1-carboxamido)benzoate] | > 79 | < 50 | < 50 | < 50 | < 50
